Measured values as given in patent US20210401931A1, “METHODS AND MATERIALS FOR TREATING CANCER” (Mayo Foundation for Medical Education and Research, priority 2018, published 2021).
“Also recorded” adds a separate entry of the source.

What was measured:
[1] = test system: MAP3K7- and CHD1-KD PC-3 cells; assay: MTS viability / IC50 analysis in MAP3K7- and CHD1-KD PC-3 cells; assay type: cell-based, human; conditions: MTS assay, log 2(IC50ratio)
Procedure: FIGS. 14A-G. RB functions as a negative regulator of NFκB signaling. (A) PC-3 infected with lentivirus for indicated shRNAs were treated with different chemicals and cells viability was measured by MTS assay. Heat map showing the normalized IC50 ratio (log 2(IC50ratio)). (B-D) PC-3 cells infected with lentivirus expressing indicated shRNAs were harvested for western blots (B), FACS (C), and RT-qPCR (D). All data were shown as mean values±SD (n=3). ns, not significant, * P<0.05, ** P<0.01, *** P<0.001. (E, F) PC-3 cells infected with indicated lentivirus were injected s.c. into NSG mice, and tumors were harvested and photographed at day 21 (E). Data in (F) were shown as means±SD (n=5). ns, not significant, * P<0.05. (G) A model depicting RB functions as a negative regulator of NFκB (p65/p50), providing an explanation of the finding that depletion of RB offsets the death of PTEN-null cells induced by either MAP3K7 or CHD1 deletion.
MAP3K7 or CHD1 was knocked down (KD) in PTEN-null PC-3 cells followed by treatment with an array of small molecule inhibitors for a number of cancer relevant pathways.

RB-p65 interaction = assay: Co-immunoprecipitation of RB and p65 in PC-3 cells; assay type: cell-based, human; conditions: TNFα 20 ng/mL, 24 hours
Excerpt: FIGS. 2A-H. RB phosphorylation by CDK4 enhances RB interaction with NFκB protein p65. (A) Western blot analysis of reciprocal co-immunoprecipitation of endogenous RB1 and p65 proteins in PC-3 cells. (B) Schematic diagram depicting a set of p65 recombinant protein constructs. Western blot analysis of RB proteins in PC-3 cells whole cell lysate pulled down by GST or GST-p65 recombinant proteins. Stars indicated expected molecular weight. (C) Western blot analysis of RB proteins in PC-3 whole cell lysate pulled down by GST or GST-p65 recombinant proteins. Cell lysates were treated with or without λ, phosphatase before GST-pull down. (D) Western blot analysis of PC-3 whole cell lysates (WCL) and co-IP samples. Cell lysates were treated with or without λ, phosphatase before IP. (E) Western blot analysis of WCL and co-IP samples in DU145 cells 24 hours after transfected with indicated plasmids. (F) Western blot analysis of WCL and co-IP samples in PC-3 cells. Cells were treated with or without palbociclib (5 μM) for 24 hours before IP. […] Western blot bands of co-IPed RB protein were quantified by ImageJ software and normalized to the quantified value of IP-ed RB in cells without TNFα treatment. […] Western blot bands of p65 protein were quantified by ImageJ software and normalized to the quantified value of p65 protein in cell lysate without immuno-depletion (preimmune sample). […]

[2] = test system: NF-κB site of the PD-L1 promoter; assay: EMSA with biotin-labeled PD-L1-prom oligonucleotide and PC-3 nuclear extracts; assay type: cell-based, human; conditions: PC-3 nuclear extract
Excerpt: FIGS. 11A-H. (A) Heatmap showing differentially expressed genes (FDR<0.01) between palbociclib treatment versus DMSO and knockdown RB1 versus control. Gene expression values (FPKM) were Z-score normalized. FPKM, Fragments Per Kilobase of transcript per Million mapped reads. (B) UCSC Genome Browser screenshots of meta-analysis of published RB ChIP high throughput sequencing (ChIP-seq) data showing RB binding to CD274 (PD-L1) gene locus in K562 cells. PD-L1-prom oligonucleotide DNA containing NF-κB binding sequence was shown in the RB binding peak in the PD-L1 gene, the corresponding mutant PD-L1-prom oligonucleotide DNA was shown below. FIG. 11B discloses SEQ ID NOS 279-280, respectively, in order of appearance. (C) ChIP-qPCR analysis of RB binds at the PD-L1 promotor in PC-3 cells. All data were shown as mean values±SD (n=3). *** P<0.001. (D) ChIP-reChIP analysis examining the co-localization of p65 and RB in the PD-L1 promoters. All data were shown as mean values±SD (n=3). ** P<0.01. […]
FIGS. 21A-N. Effect of RB depletion, cell cycle, and RB-N S249/T252 phospho-mimicking peptide on PD-L1 expression in cell lines of various cancer types. […] 48 hours after infection, PD-L1 expression was determined by western blotting (A), RT-qPCR (B), and FACS (C). […] (D) Pd-l1 protein and mRNA levels were determined by western blotting in primary SKO and DKO mouse prostate tumor cell lines. […]

p65-IκBα interaction = assay: Co-immunoprecipitation of p65 and IκBα in PC-3 cells; assay type: cell-based, human; conditions: TNFα 20 ng/mL, 24 hours
p65 NFκB protein = molecular target: T1, p65 NFκB protein (human, UniProt Q04206 1-551); assay: GST pull down from PC-3 whole cell lysate, western blot (FIG. 2H)
T1 construct: which one stood in the assay is told under assay; also called endogenous p65; in vitro transcribed and translated p65 (pCMV4 p65)
Procedure: Cells were lysed with IP buffer (50 mM Tris-HCl, pH 7.4, 150 mM NaCl, 1% Triton X-100, 1% sodium deoxycholate, and 1% protease inhibitor cocktails) on ice for more than 30 minutes. GST fusion proteins were immobilized on glutathione-Sepharose beads (GE Healthcare Lifesciences). After washing with lysis buffer, the beads were incubated with cell lysates overnight at 4° C. overnight. The beads were then washed six times with binding buffer and re-suspended in sample buffer. The bound proteins were subjected to western blotting analysis.

T1 sequence (Q04206 whole entry): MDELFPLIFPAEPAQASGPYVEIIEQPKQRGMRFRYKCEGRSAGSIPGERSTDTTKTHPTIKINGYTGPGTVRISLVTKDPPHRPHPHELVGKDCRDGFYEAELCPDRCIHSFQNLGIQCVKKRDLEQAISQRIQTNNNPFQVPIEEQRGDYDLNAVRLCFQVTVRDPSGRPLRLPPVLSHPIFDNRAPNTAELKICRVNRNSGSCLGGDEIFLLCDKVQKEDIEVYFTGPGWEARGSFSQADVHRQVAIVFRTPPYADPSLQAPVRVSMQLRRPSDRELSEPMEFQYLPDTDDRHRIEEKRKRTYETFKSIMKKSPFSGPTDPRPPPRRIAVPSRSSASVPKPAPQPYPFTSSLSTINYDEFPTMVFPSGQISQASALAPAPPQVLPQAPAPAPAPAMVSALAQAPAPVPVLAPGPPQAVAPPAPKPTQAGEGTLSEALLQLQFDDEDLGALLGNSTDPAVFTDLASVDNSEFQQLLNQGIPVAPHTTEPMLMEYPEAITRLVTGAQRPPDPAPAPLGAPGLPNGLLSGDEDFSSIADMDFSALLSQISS

Cc1ccc(NCCCc2ccccc2)c(N)c1 [JSH-23]
viability of MAP3K7- and CHD1-KD PC-3 cells (normalized IC50 ratio) [1]: further increased viability loss

TNFα
p65-RB interaction in the nucleus (RB-p65 interaction): increased
DNA-protein complex (DPC) level at PD-L1-Prom probe [2]: largely enhanced; also recorded: further enhanced
p65-IκBα interaction (p65-IκBα interaction): decreased

B1: GST-RB-C (other, human, UniProt P06400 793-928, looked up)
chain: PSSPLRIPGGNIYISPLKSPYKISEGLPTPTKMTPRSRILVSIGESFGTSEKFQKINQMVCNSDRVLKRSAEGSNPPKPLKKLRFDIEGSDEADGSKHLPGESKFQQKLAEMTSTRTRMQKQKMNDSMDTSNKEEK
notes: domain: RB-C; not shown: glutathione S-transferase (GST) tag of the fusion
binding result (p65 NFκB protein): no binding
